Consider 20 compounds from ChEMBL document CHEMBL4811234, “Dihydro-β-agarofuran-Type Sesquiterpenoids from the Seeds of Celastrus virens and Their Multidrug Resistance Reversal Activity against the KB/VCR Cell Line” (J Nat Prod, 2021).

The structures appear in SMILES notation.

Usually inhibition stands for the change of the read-out against control, counted positive when it falls.

The nature of data set [1]: Cytotoxicity against human KB/VCR cells assessed as inhibition of cell proliferation at 20 uM measured after 72 hrs by CCK8 assay relative to control. Format: cell-based. In general terms: Formazan colour is commonly taken as a measure of viable cells.
Data set [2] in a line: Cytotoxicity against human KB/VCR cells assessed as inhibition of cell proliferation at 2 uM measured after 72 hrs by CCK8 assay relative to control. Format: cell-based.

Consider `CC(=O)O[C@H]1[C@@H]2[C@@H](OC(C)=O)[C@]3(OC2(C)C)[C@H](C)C[C@@H](OC(C)=O)[C@H](OC(C)=O)[C@@]3(C)[C@H]1OC(=O)c1ccccc1`, for which, in data set [1], the inhibition at 72 h, 20 µM was -2%. For the same compound, the inhibition at 72 h, 2 µM in data set [2] is -1.2%.

As for `CC(=O)O[C@@H]1[C@H]2[C@H](O)[C@H](OC(=O)c3ccccc3)[C@]3(C)[C@@H](OC(C)=O)[C@H](O)C[C@@H](C)[C@@]13OC2(C)C`, the inhibition at 72 h, 20 µM in data set [1] is -2.1%. Moreover, the inhibition at 72 h, 2 µM in data set [2] was -1.9%. For `CC(=O)O[C@H]1C[C@@H](C)[C@]23OC(C)(C)[C@H](C[C@H](OC(=O)c4ccccc4)[C@@]2(C)[C@@H]1OC(C)=O)[C@H]3OC(=O)c1ccccc1`, in that order: 57.9% and 0%.

On to `CC(=O)O[C@H]1[C@@H]2[C@@H](OC(=O)/C=C/c3ccccc3)[C@]3(OC2(C)C)[C@H](C)C[C@@H](OC(C)=O)[C@H](OC(C)=O)[C@@]3(C)[C@H]1OC(=O)c1ccccc1`, for which the inhibition at 72 h, 20 µM in data set [1] is -3%. In data set [2], the inhibition at 72 h, 2 µM was -0.6%. Consider `CC(=O)O[C@@H]1[C@@H]2[C@@H](OC(C)=O)[C@]3(OC2(C)C)[C@H](C)C[C@H](OC(=O)/C=C/c2ccccc2)[C@H](OC(C)=O)[C@@]3(C)[C@@H]1OC(=O)c1ccccc1`, for which the inhibition at 72 h, 20 µM in data set [1] is -12.8%. Also, the inhibition at 72 h, 2 µM in data set [2] was 0.7%. As to `CC(=O)O[C@@H]1[C@@H]2[C@@H](OC(C)=O)[C@]3(OC2(C)C)[C@H](C)CC[C@H](OC(C)=O)[C@@]3(C)[C@@H]1OC(=O)c1ccccc1`, the inhibition at 72 h, 20 µM in data set [1] was 2.4%. Further, in data set [2], the inhibition at 72 h, 2 µM was 1.6%. For `CC(=O)OC[C@]12[C@H](OC(C)=O)C(=O)[C@@H]3[C@@H](OC(C)=O)[C@]1(OC3(C)C)[C@H](C)[C@@H](O)[C@H](OC(C)=O)[C@@H]2OC(C)=O`, in that order: 9.2% and -5.3%. For `CC(=O)OC[C@]12[C@H](OC(C)=O)C(=O)[C@@H]3[C@@H](OC(C)=O)[C@]1(OC3(C)C)[C@H](C)C[C@H](O)[C@@H]2OC(C)=O`, the inhibition at 72 h, 20 µM in data set [1] was 2.6%. For the same compound, the inhibition at 72 h, 2 µM in data set [2] was -2%.

With `CCCCCC(=O)O[C@@H]1[C@@H]2[C@@H](OC(C)=O)[C@]3(OC2(C)C)[C@H](C)C[C@@H](OC(C)=O)[C@H](OC(C)=O)[C@@]3(C)[C@H]1OC(=O)c1ccccc1`, the inhibition at 72 h, 20 µM in data set [1] is -1.9%. In addition, the inhibition at 72 h, 2 µM in data set [2] is -3.1%.

Take `CC(=O)O[C@@H]1C[C@@H](C)[C@]23OC(C)(C)[C@H](C[C@H](OC(=O)c4ccccc4)[C@]2(C)[C@H]1OC(C)=O)[C@H]3OC(=O)/C=C/c1ccccc1`: the inhibition at 72 h, 20 µM in data set [1] came out at 81.8%. For the same compound, the inhibition at 72 h, 2 µM in data set [2] was -5.3%. The matching figures for `CC(=O)O[C@H]1[C@@H]2[C@@H](OC(=O)c3cccnc3)[C@]3(OC2(C)C)[C@H](C)C[C@H](OC(C)=O)[C@@H](OC(C)=O)[C@@]3(C)[C@H]1OC(=O)c1ccccc1`: -6.7% and -3%.

Take `CC(=O)O[C@H]1CC[C@@H](C)[C@]23OC(C)(C)[C@H](C[C@H](OC(=O)c4ccccc4)[C@]12C)[C@H]3OC(C)=O`: in data set [1], the inhibition at 72 h, 20 µM was found to be 0.7%. Moreover, in data set [2], the inhibition at 72 h, 2 µM was -1.1%.

Consider `CC(=O)OC[C@]12[C@H](OC(C)=O)C(=O)[C@@H]3[C@@H](O)[C@]1(OC3(C)C)[C@H](C)[C@@H](OC(C)=O)[C@H](OC(C)=O)[C@@H]2OC(C)=O`, for which the inhibition at 72 h, 20 µM in data set [1] was 2.6%. The inhibition at 72 h, 2 µM in data set [2] was determined as 1.6%. `COc1cc2c(cc1OC)CN(CCc1ccc(-n3nnc(-c4cc(OC)c(OC)cc4NC(=O)c4cc(=O)c5ccccc5o4)n3)cc1)CC2`: the inhibition at 72 h, 2 µM in data set [2] stood at 23.1%. On to `CC(=O)O[C@H]1[C@@H]2[C@@H](OC(=O)/C=C/c3ccccc3)[C@]3(OC2(C)C)[C@H](C)C[C@H](O)[C@H](OC(C)=O)[C@@]3(C)[C@H]1OC(=O)c1ccccc1`, for which the inhibition at 72 h, 20 µM in data set [1] came out at 76.9%. For the same compound, the inhibition at 72 h, 2 µM in data set [2] is -20.3%.

For the compound `CC(=O)O[C@@H]1[C@@H]2[C@@H](OC(C)=O)[C@]3(OC2(C)C)[C@H](C)C[C@@H](OC(C)=O)[C@H](OC(C)=O)[C@@]3(C)[C@@H]1OC(=O)c1ccccc1`, in data set [1], the inhibition at 72 h, 20 µM is -1.5%. Moreover, the inhibition at 72 h, 2 µM in data set [2] worked out at 2.7%. Regarding `CC(=O)O[C@H]1CC[C@@H](C)[C@]23OC(C)(C)[C@H](C[C@H](OC(=O)c4ccccc4)[C@]12C)[C@H]3OC(=O)c1ccccc1`, the inhibition at 72 h, 20 µM in data set [1] came to 77.9%. In addition, the inhibition at 72 h, 2 µM in data set [2] is -1.8%. The matching figures for `CC(=O)OC[C@]12[C@H](OC(C)=O)C(=O)[C@@H]3[C@@H](O)[C@]1(OC3(C)C)[C@H](C)[C@@H](O)[C@H](OC(C)=O)[C@@H]2OC(C)=O`: 1.5% and -0.5%. For `CC(=O)O[C@@H]1[C@@H]2[C@@H](OC(C)=O)[C@]3(OC2(C)C)[C@H](C)CC[C@H](OC(C)=O)[C@@]3(C)[C@H]1OC(=O)c1ccccc1`, the inhibition at 72 h, 20 µM in data set [1] amounted to 3.2%. In addition, the inhibition at 72 h, 2 µM in data set [2] was determined as 2.4%. The matching figures for `CC(=O)O[C@@H]1C[C@@H](C)[C@]23OC(C)(C)[C@H]([C@@H](O)[C@H](OC(=O)c4ccccc4)[C@@]2(C)[C@H]1OC(C)=O)[C@H]3OC(=O)/C=C/c1ccccc1`: 78.7% and 3.3%.
